# Assay results published in patent EP4741389A1, “KAT6 INHIBITOR” (Shanghai Qilu Pharmaceutical Research and Development …, priority 2023, dated 2025).
# Assays:
# KAT6A = target: T1, KAT6A (Homo sapiens, UniProt Q92794); assay: KATs acetyltransferase enzyme activity assay (TR-FRET), KAT6A; assay type: biochemical; details: Biotin-H3 (1-21) and AcCOA, 90 minutes at room temperature
# T1 construct: purchased Active Motif 81223
# Protocol: (§1) I. KATs acetyltransferase enzyme activity assay
# • 1. The inhibitory effect of compounds on the acetyltransferase activity of KATs was evaluated using the Time-Resolved Fluorescence Resonance Energy Transfer (TR-FRET) assay. The assay was conducted in 384-well plates using Tris-HCl buffer. • 2. Compounds were diluted in DMSO and transferred to 384-well plates. […] Subsequently, 2.5 µL of a mixture containing KAT6A/KAT6B: Biotin-H3 (1-21, Genscript, C6829GL060) or KAT5/7/8: Bio-H4 (1-25, Genscript, C736BGL100) AcCOA (Sigma, A2056) was added, and the reaction proceeded at room temperature for 90 minutes. • 4. After the reaction, a detection mixture containing Europium-anti-acetyl-Histone H4 Lysine (H4Kac pan) Antibody (Perkin Elmer, TRF0412) and LANCE Ultra ULight™-Streptavidin in LANCE™ Detection buffer (10x) (Perkin Elmer, CR97-100) was added, followed by incubation at room temperature for 60 minutes. • 5. […] IC50 values were calculated by nonlinear regression using a four-parameter logistic equation in GraphPad Prism 8 software.
# KAT6B = target: T2, KAT6B (Homo sapiens, UniProt Q8WYB5); assay: KATs acetyltransferase enzyme activity assay (TR-FRET), KAT6B; assay type: biochemical; details: Biotin-H3 (1-21) and AcCOA, 90 minutes at room temperature
# T2 construct: purchased Active Motif 81224
# T2 sequence (Q8WYB5 whole entry): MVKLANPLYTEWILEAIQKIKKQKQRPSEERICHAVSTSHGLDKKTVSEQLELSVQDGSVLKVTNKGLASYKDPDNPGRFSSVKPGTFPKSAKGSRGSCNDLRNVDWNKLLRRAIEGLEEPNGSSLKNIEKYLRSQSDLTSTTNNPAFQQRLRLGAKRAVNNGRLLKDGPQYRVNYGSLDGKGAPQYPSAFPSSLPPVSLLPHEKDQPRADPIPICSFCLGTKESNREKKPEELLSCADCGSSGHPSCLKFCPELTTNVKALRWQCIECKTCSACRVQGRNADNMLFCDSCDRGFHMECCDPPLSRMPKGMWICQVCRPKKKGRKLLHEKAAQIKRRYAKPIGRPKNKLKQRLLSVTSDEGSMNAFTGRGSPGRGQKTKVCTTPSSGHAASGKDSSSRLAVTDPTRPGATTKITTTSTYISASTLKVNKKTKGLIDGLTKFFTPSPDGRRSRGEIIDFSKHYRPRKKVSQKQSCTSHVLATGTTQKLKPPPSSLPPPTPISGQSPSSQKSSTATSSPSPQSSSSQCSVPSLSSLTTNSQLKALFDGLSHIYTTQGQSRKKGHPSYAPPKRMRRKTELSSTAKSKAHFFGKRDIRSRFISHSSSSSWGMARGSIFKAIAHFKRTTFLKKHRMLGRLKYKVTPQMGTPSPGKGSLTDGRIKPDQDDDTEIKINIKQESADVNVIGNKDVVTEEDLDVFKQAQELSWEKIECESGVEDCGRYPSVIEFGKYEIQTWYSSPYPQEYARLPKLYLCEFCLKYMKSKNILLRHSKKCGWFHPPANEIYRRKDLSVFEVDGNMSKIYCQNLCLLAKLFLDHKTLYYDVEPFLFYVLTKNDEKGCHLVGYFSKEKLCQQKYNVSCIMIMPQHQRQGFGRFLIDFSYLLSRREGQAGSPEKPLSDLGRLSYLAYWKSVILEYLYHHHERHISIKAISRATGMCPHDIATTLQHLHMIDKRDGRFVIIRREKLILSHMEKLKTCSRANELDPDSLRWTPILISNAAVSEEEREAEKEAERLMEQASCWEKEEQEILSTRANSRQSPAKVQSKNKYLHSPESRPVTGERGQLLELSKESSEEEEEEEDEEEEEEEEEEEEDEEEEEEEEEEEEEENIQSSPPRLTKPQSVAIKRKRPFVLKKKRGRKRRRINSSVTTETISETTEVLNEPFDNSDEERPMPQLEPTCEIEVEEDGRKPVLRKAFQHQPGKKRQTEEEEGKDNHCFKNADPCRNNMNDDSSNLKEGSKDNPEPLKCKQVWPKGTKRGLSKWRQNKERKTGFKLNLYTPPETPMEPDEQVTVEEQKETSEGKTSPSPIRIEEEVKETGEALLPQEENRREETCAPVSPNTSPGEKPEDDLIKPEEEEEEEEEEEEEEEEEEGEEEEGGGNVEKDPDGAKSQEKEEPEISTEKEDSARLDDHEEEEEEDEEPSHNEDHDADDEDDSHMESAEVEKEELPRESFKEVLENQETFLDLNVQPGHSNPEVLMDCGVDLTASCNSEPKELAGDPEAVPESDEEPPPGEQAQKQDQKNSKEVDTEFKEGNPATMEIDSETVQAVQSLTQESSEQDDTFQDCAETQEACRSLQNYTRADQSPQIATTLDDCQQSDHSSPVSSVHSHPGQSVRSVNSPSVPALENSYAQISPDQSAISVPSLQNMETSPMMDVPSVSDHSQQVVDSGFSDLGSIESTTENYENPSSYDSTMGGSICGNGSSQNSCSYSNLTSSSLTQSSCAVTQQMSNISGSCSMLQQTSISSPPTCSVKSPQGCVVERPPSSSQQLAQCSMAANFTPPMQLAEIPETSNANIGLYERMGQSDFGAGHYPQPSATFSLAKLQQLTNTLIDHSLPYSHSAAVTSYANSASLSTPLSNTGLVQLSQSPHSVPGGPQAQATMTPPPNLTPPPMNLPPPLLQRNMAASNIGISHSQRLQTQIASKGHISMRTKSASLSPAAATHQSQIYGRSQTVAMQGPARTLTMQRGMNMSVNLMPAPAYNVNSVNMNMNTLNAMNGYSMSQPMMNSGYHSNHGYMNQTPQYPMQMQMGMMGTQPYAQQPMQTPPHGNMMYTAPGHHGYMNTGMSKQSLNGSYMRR
# Protocol: as §1
# • 1. The inhibitory effect of compounds on the acetyltransferase activity of KATs was evaluated using the Time-Resolved Fluorescence Resonance Energy Transfer (TR-FRET) assay. The assay was conducted in 384-well plates using Tris-HCl buffer. • 2. Compounds were diluted in DMSO and transferred to 384-well plates. Enzyme solutions (KAT6: active motif (kit), 81223; KAT6B: active motif, 81224; KAT5: SignalChem, K314-380G; KAT7: ICE, S2210F-H21HF; KAT8: Active motif, 81225) were added and the mixture was incubated at room temperature for 15 minutes. • 3. Subsequently, 2.5 µL of a mixture containing KAT6A/KAT6B: Biotin-H3 (1-21, Genscript, C6829GL060) or KAT5/7/8: Bio-H4 (1-25, Genscript, C736BGL100) AcCOA (Sigma, A2056) was added, and the reaction proceeded at room temperature for 90 minutes. • 4. After the reaction, a detection mixture containing Europium-anti-acetyl-Histone H4 Lysine (H4Kac pan) Antibody (Perkin Elmer, TRF0412) and LANCE Ultra ULight™-Streptavidin in LANCE™ Detection buffer (10x) (Perkin Elmer, CR97-100) was added, followed by incubation at room temperature for 60 minutes. • 5. HTRF signals were measured using a BMG PHERAstar FSX (Ratio: 665nm/620nm). IC50 values were calculated by nonlinear regression using a four-parameter logistic equation in GraphPad Prism 8 software.
# [1] = test system: ZR-75-1 H3K23 Acetylation; assay: Histone H3 acetylation assay (H3K23 acetylation in ZR-75-1 cells); assay type: cell-based; details: Homo sapiens, 72 hours incubation, Odyssey CLx fluorescence, read-out: ZR-75-1 H3K23 Acetylation Inhibition IC50
# Protocol: III. Histone H3 acetylation assay
# • 1. ZR-75-1 cells were seeded at 5000 cells/40 µL per well in 384-well plates and cultured overnight in an incubator at 37°C & 5% CO2. • 2. 40 nL of serially diluted compounds were added to the 384-well plates, followed by further incubation for 72 hours. • 3. The supernatant was discarded, and 8 w/v% paraformaldehyde (final concentration was 4 w/v%) was added directly to the wells to fix the cells at room temperature. • 4. After washing twice with PBS, a permeabilization agent (40 µL of methanol) was added and incubated for 10 minutes to permeabilize the cell membranes. • 5. After washing twice with PBS, a blocking buffer was added and incubated at room temperature for 1 hour for blocking. • 6. The blocking buffer was discarded, and 20 µL of primary antibodies (recombinant Anti-Histone H3 (acetyl K23) antibody and Anti-Histone H4 antibody) diluted in blocking buffer (1:1000 by volume dilution) were added, followed by incubation at 4°C overnight. • 7. After washing three times with PBST (0.05 vol% Tween-20 in PBS), 20 µL of fluorescent secondary antibodies (IRDye 680RD Goat anti-MOUSE, Licor, 926-68070; IRDye 800CW Goat anti-Rabbit, Licor, 926-32211) diluted in blocking buffer (1:2000 by volume dilution) were added, followed by incubation at room temperature, protected from light, for 1 hour. Then, the plates were washed three times with PBST. • 8. Scanning was performed using an Odyssey CLx, and the fluorescence signal value for each well was quantified. IC50 values were calculated by nonlinear regression using a four-parameter logistic equation in GraphPad Prism 8 software.
# ZR-75-1 cells = assay: ZR-75-1 cell proliferation assay (CellTiter-Glo); assay type: cell-based; details: Homo sapiens, ZR-75-1, 240 h, total culture period of 10 days, read-out: ZR-75-1 Proliferation Inhibition IC50
# Protocol: II. ZR-75-1 cell proliferation assay
# • 1. ZR-75-1 cells were seeded in 96-well plates and cultured overnight in an incubator at 37°C & 5% CO2. • 2. Compounds were diluted using culture medium and added to the 96-well plates. The plates were placed back into the incubator for continued culture. Every 5 days, the cells were trypsinized, counted, and re-seeded. After the cells had fully adhered, compounds were added again for incubation, for a total culture period of 10 days. • 3. After the culture period, 60 µL of CellTiter-Glo reagent (Promega, G7573) was added to each well. The plates were protected from light and shaken for 2 minutes to lyse the cells, followed by further incubation at room temperature, protected from light, for 30 minutes. • 4. Luminescence signals were read using a BMG PHERAstar FSX. IC50 values were calculated by nonlinear regression using a four-parameter logistic equation in GraphPad Prism 8 software.
# T1 sequence (Q92794 488-778 limits assumed): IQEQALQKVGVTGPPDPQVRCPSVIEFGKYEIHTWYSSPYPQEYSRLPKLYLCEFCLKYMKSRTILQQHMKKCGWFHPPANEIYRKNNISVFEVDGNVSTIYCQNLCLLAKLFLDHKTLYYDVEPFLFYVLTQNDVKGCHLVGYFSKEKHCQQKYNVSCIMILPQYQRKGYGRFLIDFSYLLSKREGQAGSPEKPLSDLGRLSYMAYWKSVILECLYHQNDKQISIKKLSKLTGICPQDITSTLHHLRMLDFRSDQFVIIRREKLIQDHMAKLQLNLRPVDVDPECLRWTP
SMILES,IC50 (KAT6A),IC50 (KAT6B),IC50 [1],IC50 (ZR-75-1 cells)
"COc1cc2c(cc1S(=O)(=O)Nc1noc3cc(Cn4cccn4)cc(OC)c13)C1(CC1)CO2 [Compound 4, N-(6-((1H-Pyrazol-1-yl)methyl)-4-methoxybenzo[d]isoxazol-3-yl)-6-methoxy-2H-spiro[benzofuran-3,1'-cyclopropane]-5-sulfonamide]",2 nM,15 nM,,
"COc1cc2c(cc1S(=O)(=O)Nc1noc3cc(Cn4cccn4)cc(OC)c13)COCCO2 [Compound 9, N-(6-((1H-Pyrazol-1-yl)methyl)-4-methoxybenzo[d]isoxazol-3-yl)-8-methoxy-2,3-dihyd ro-5H-benzo[e][1,4]dioxepine-7-sulfonamide]",1.6 nM,9.5 nM,2.1 nM,
"COc1ccc2c(c1S(=O)(=O)Nc1noc3cc(Cn4cccn4)cc(OC)c13)OCC(F)(F)CO2 [Compound 11, N-(6-((1H-Pyrazol-1-yl)methyl)-4-methoxybenzo[d]isoxazol-3-yl)-3,3-difluoro-7-methoxy-3,4-dihydro-2H-benzo[b] [1,4]dioxepine-6-sulfonamide]",2.5 nM,46.8 nM,12.7 nM,
"COc1ccc2c(c1S(=O)(=O)Nc1noc3cc(Cn4cccn4)c(C)cc13)OCCCO2 [Compound 17, N-(6-((1H-Pyrazol-1-yl)methyl)-5-methylbenzo[d]isoxazol-3-yl)-7-methoxy-3,4-dihydro-2H-benzo [b] [1,4] dioxepine-6-sulfonamide]",,,,3.7 nM
"CCOc1cc2c(NS(=O)(=O)c3c(OC)ccc4c3OCCCO4)noc2cc1Cn1cccn1 [Compound 18, N-(6-((1H-Pyrazol-1-yl)methyl)-5-ethoxybenzo[d]isoxazol-3-yl)-7-methoxy-3,4-dihydro-2H-benzo [b] [1,4] dioxepine-6-sulfonamide]",,,,22.1 nM
"COc1ccc2c(c1S(=O)(=O)Nc1noc3cc(Cn4cccn4)c4c(c13)OCCC4)OCCCO2 [Compound 22, N-(5-((1H-Pyrazol-1-yl)methyl)-3,4-dihydro-2H-chromeno[8,7-d]isoxazol-9-yl)-7-methoxy-3,4-dihydro-2H-benzo[b][1,4]dioxepine-6-sulfonamide]",1.5 nM,7.3 nM,,0.5 nM
"COc1ccc2c(c1S(=O)(=O)Nc1noc3cc(Cn4cccn4)c(C)c(OC)c13)OCC1CC21 (stereo not shown) [Compound 24, N-(6-((1H-Pyrazol-1-yl)methyl)-4-methoxy-5-methylbenzo[d]isoxazol-3-yl)-5-methoxy-1,1a,2,7b-tetrahydrocyclopropa[c]chromene-4-sulfonamide]",3.1 nM,34.4 nM,,
"COc1ccc2c(c1S(=O)(=O)Nc1noc3cc(Cn4cccn4)c(C)c(OC)c13)OCC21CC1 [Compound 25, N-(6-((1H-Pyrazol-1-yl)methyl)-4-methoxy-5-methylbenzo[d]isoxazol-3-yl)-6-methoxy-2H-spiro[benzofuran-3,1'-cyclopropane]-7-sulfonamide]",5.9 nM,70.3 nM,,
"CCc1c(Cn2cccn2)cc2onc(NS(=O)(=O)c3c(OC)ccc4c3OCCCO4)c2c1OC [Compound 26, N-(6-((1H-Pyrazol-1-yl)methyl)-5-ethyl-4-methoxybenzo[d]isoxazol-3-yl)-7-methoxy-3,4-dihydro-2H-benzo[b][1,4]dioxepine-6-sulfonamide]",4.7 nM,80.3 nM,,
"[2H]C([2H])(c1cc(OC)c2c(NS(=O)(=O)c3c(OC)ccc4c3OC[C@@H]3C[C@H]43)noc2c1)n1cccn1 [Compound 42, (1aR,7bS)-N-(6-((1H-Pyrazol-1-yl)methyl-d2)-4-methoxybenzo[d]isoxazol-3-yl)-5-methoxy-1,1a,2,7b-tetrahydrocyclopropa[c]chromene-4-sulfonamide]",1.1 nM,1.6 nM,,0.1 nM
"[2H]C([2H])(c1cc(OC)c2c(NS(=O)(=O)c3c(OC)ccc4c3OCCCO4)noc2c1)n1cccn1 [Compound 43, N-(6-((1H-Pyrazol-1-yl)methyl-d2)-4-methoxybenzo[d]isoxazol-3-yl)-7-methoxy-3,4-di hydro-2H-benzo[b][1,4]dioxepine-6-sulfonamide]",3.7 nM,28.9 nM,,1 nM
"COc1ccc2c(c1S(=O)(=O)Nc1noc3cc(Cn4cccn4)cc(OC)c13)OC1CC21 (stereo not shown) [Compound 44, 4-Methoxy-N-[4-methoxy-6-(pyrazol-1-ylmethyl)-1,2-benzoxazol-3-yl]-la,6b-dihydro-1 H-cyclopropa[b]benzofuran-3-sulfonamide]",1.7 nM,8.6 nM,,0.3 nM
"[2H]C([2H])([2H])Oc1cc(Cn2cccn2)cc2onc(NS(=O)(=O)c3c(OC)ccc4c3OC[C@@H]3C[C@H]43)c12 [Compound 45, (1aR,7bS)-N-(6-((1H-Pyrazol-1-yl)methyl)-4-(methoxy-d3)benzo[d]isoxazol-3-yl)-5-met hoxy-1,1a,2,7b-tetrahydrocyclopropa[c]chromene-4-sulfonamide]",0.6 nM,1.4 nM,,0.04 nM
"[2H]C([2H])([2H])Oc1cc(Cn2cccn2)cc2onc(NS(=O)(=O)c3c(OC)ccc4c3OCCCO4)c12 [Compound 46, 7-Methoxy-N-[6-(pyrazol-1-ylmethyl)-4-(trideuteriomethoxy)-1,2-benzoxazol-3-yl]-3,4-dihydro-2H-1,5-benzodioxepine-6-sulfonamide]",5.4 nM,33.8 nM,,1 nM
"COc1ccc2c(c1S(=O)(=O)Nc1noc3cc(Oc4nccs4)cc(OC)c13)OC[C@@H]1C[C@H]21 [Compound 47, (1aR,7bS)-5-Methoxy-N-(4-methoxy-6-(thiazol-2-yloxy)benzo[d]isoxazol-3-yl)-1,1a,2,7 b-tetrahydrocyclopropa[c]chromene-4-sulfonamide]",0.8 nM,1.5 nM,3.4 nM,
"COc1ccc2c(c1S(=O)(=O)Nc1noc3cc(Oc4ccccn4)cc(OC)c13)OC[C@@H]1C[C@H]21 [Compound 48, (1aR,7bS)-5-Methoxy-N-(4-methoxy-6-(pyridin-2-yloxy)benzo[d]isoxazol-3-yl)-1,1a,2,7 b-tetrahydrocyclopropa [c] chromene-4-sulfonamide]",1.7 nM,15.6 nM,17.9 nM,
